On to `CC(C)(CO)NC(=O)c1nn(-c2ccc(F)cc2F)c2c1C1CCC2C1` (stereo not given), for which the melting point (as a rule, the temperature, or range, at which the solid turns liquid) was 142 to 144 °C.
As for `COc1ccc(CCNC(=O)Nc2ccccc2CCc2cc(C(C)(C)C)c(O)c(C(C)(C)C)c2)cc1`, the figure is 148 to 149 °C.
As for `CCn1nc(-c2sc(N)nc2-c2ccccc2)ccc1=O`, the figure is 232 to 235 °C.
As for `CCN(CC)S(=O)(=O)c1cc2c(c(C(=O)NCc3ccccc3)c1)OCCO2`, the figure is 125 °C.
In turn, `CCCONC(=O)c1c(Cl)ccc(C(=O)OC)c1Cl` came in with a melting point of 80 to 81 °C.
In turn, `Cc1cccc(COc2nn3c(-c4ccccc4)nnc3c3ccccc23)n1` displayed a melting point of 186 to 187 °C.
Turning to `O=c1[nH]c2cc(C(F)(F)F)cc(C(F)(F)F)c2[nH]c1=O`, the melting point fell in the range of 305 to 308 °C.
As for `Nc1cc(Br)cc(OCc2ccccc2)c1NC(=O)C1CC1`, the figure is 207 to 208 °C; as for `CCc1c(CNS(=O)(=O)c2cccc(Cl)c2)nn(-c2ccc(Cl)cc2Cl)c1-c1ccc(Br)cc1`, 169 °C.
As for `Cc1c(C(N)=O)oc2c(C(=O)NCCCN3CCN(c4cc(Cl)ccc4OS(=O)(=O)C(F)(F)F)CC3)cccc2c1=O`, the figure is 150 to 156 °C; as for `CCOC(=O)c1c(Nc2ccccc2N)c(C)cn1C`, 90 °C.
As for `CCCn1c(-c2c(Cl)cccc2Cl)nc(-c2ccncc2)c1-c1ccc(Cl)cc1`, the figure is 220 to 222 °C.
`CC(C)NCCNc1nc(Nc2cccc(NS(C)(=O)=O)c2)nc2[nH]ccc12` displayed a melting point of 127 to 131 °C.
As for `CCC(=NOCc1ccc(Cl)cc1)c1cc(Cl)ccc1NS(=O)(=O)C(F)(F)F`, the figure is 54 to 55 °C.
As for `CS(=O)(=O)c1ccc(-c2cnn(Cc3ccc4ccccc4n3)c(=O)c2-c2ccc(F)cc2)cc1`, the figure is 97 to 100 °C; as for `O=[N+]([O-])c1ccccc1NOS(=O)(=O)c1ccccc1`, 140 °C.
As for `CS(=O)(=O)c1ccc(C(CC2CCCC2)C(N)=O)cc1Br` (stereo not given), the figure is 60 to 63 °C; as for `CC1(C)CCC(C)(C)c2cc([N+](=O)[O-])c(O)cc21`, 139 °C.
In the case of `CN1CCN(c2ccc([N+](=O)[O-])c(CS(=O)(=O)c3ccccc3)n2)CC1`, the melting point lay in the range of 170 to 172 °C.
As for `CC(=O)C1=CCC2C3CCC4CC(O)CCC4(C)C3=CCC12C` (stereo not given), the figure is 188 to 190 °C.
As for `CS(=O)(=O)c1ccc(-n2nc(C(F)(F)F)cc2-c2ccc(F)cc2)cc1`, the figure is 127 to 129 °C; as for `O=c1ccoc(C(O)c2ccc(F)cc2)c1O` (stereo not given), 154 to 156 °C.
As for `COc1cc(N)c(Cl)cc1C(=O)NC1CCN(CCC(O)C(=O)c2ccc(F)cc2)CC1OC` (stereo not given), the figure is 146 °C.
As for `O=S(CCCCl)Cc1ccccc1` (stereo not given), the melting point fell in the range of 70 to 71 °C.
As for `C=CCOC1=NC2OC(C(=O)c3ccc(Cl)cc3Cl)=C(NC(N)=O)C2C=C1` (stereo not given), the figure is 222 °C; as for `Cc1ccc(S(=O)(=O)N2CCC[C@@H]2C(=O)N[C@H](Cc2ccccc2)C(=O)O)cc1`, 71 to 75 °C.
As for `Cc1ccc(-c2ncnc(-c3cccc(C(=O)O)c3)n2)cc1`, the figure is 298 to 300 °C; as for `CCOC(=O)c1nc(O)n2c1c(=O)n(C)c1cc(C(F)(F)F)ccc12`, greater than 300 °C; as for `Fc1ccc(-c2ccc3[nH]c4c(ccc5cc[nH]c54)c3c2)c(F)c1`, greater than 250 °C.
As for `COc1ccc(COCC(O)Cn2ccnc2)cc1` (stereo not given), the figure is 96 to 98 °C; as for `CCOC(=O)c1c[nH]c(-c2ccccc2OCc2ccccc2)n1`, 203 to 205 °C.
`CC(O)c1cc(-c2ccc(Cl)cc2)no1` (stereo not given) had a melting point of 141 to 143 °C.
As for `CCOP(=O)(OCC)c1sc2ccccc2c1P(=O)(OCC)OCC`, the figure is 67 °C; as for `N#CC(C#N)=C(O)c1ccc(Oc2ccccc2)cc1`, 160 to 162 °C; as for `CCCCCCCCCCCCCCC(O)(CCCCC(=O)O)CCCCC(=O)O`, 79 to 80 °C.
As for `Cc1cccc2cc(N3CCN(C)CC3)[nH]c(=O)c12`, the figure is 224 to 225 °C.
As for `Oc1cc2c(cc1O)-c1ccccc1C2`, the figure is 155 to 156 °C; as for `COc1c(-c2cc3c(s2)CC(O)C3)ccc2c(=O)c(C(=O)O)cn(C3CC3)c12` (stereo not given), 254 to 255 °C; as for `CN(C[PH](=O)O)c1cc(Oc2ccc(C(F)(F)F)cc2Cl)ccc1[N+](=O)[O-]`, 153 to 154 °C.
In the case of `O=C(O)Cc1ccc(NC(=O)C(COc2ccc(Cl)cc2)NS(=O)(=O)c2ccc(F)cc2)cc1` (racemic), the melting point was 184 to 186 °C.
As for `Cc1cccc2c1nc(-c1c(F)cccc1F)n2Cc1c(F)c(F)c(F)c(F)c1F`, the figure is 155 to 156 °C; as for `Cn1cc(CN2CCN(CCOc3ccc(C=C4SC(=O)NC4=O)cc3)CC2)c2ccccc21`, 183 to 188 °C; as for `O=C1CCC(C(=O)OC(C(=O)c2ccccc2)c2ccccc2)N1` (stereo not given), 123 to 131 °C.
As for `CS(=O)(=O)C(=C1CN(C(c2ccccc2)c2ccccc2)C1)c1ccccc1Cl`, the figure is 204 °C; as for `Cc1cc2c(c(C)c1NC=O)C(c1ccc(C(C)C)cc1)CO2` (stereo not given), 193 to 196 °C.
As for `CCn1cc(C(=O)O)c(=O)c2ccc(-c3cccnc3)cc21`, the figure is 268 to 269 °C; as for `CCOC=Nc1[nH]nc(Nc2cccc(OC)c2)c1C#N`, 181 to 183 °C; as for `Cc1cc(-n2ccnc2)c2cccc(OCc3c(Cl)ccc(S(=O)(=O)N4CCC[C@H]4C(=O)NCCN4CCOCC4)c3Cl)c2n1`, 100 °C.
In the case of `Cc1oc(-c2ccccc2)nc1COc1ccc(CCc2oc(-c3ccccc3)nc2CCC(=O)O)cc1`, the melting point lay in the range of 110 to 111 °C.
Consider `CNC(=O)N1CCc2cc(OC)c(OC)c(O)c2C1Cc1cccc(OC)c1` (stereo not given), for which the melting point was 75 to 80 °C.
As for `CC(C)CCCc1c(-c2ccc(S(C)(=O)=O)cc2)cnn(-c2ccc(F)cc2)c1=O`, the figure is 112 to 115 °C; as for `CSc1nccn1CC(=O)NC1C(=O)N2C(C(=O)O)=C(CSc3nnc(C)s3)CSC12` (stereo not given), 220 °C; as for `CCCN(CCC)C1Cc2c[nH]c3ccc(C(=O)CC)c(c23)C1` (stereo not given), 149 to 150 °C.
Compound `C1=CNC(C(c2ccccc2)c2ccccc2)=C(NCc2ccccc2)C=C1` displayed a melting point of 186 to 187 °C.
As for `CCCCSc1c[nH]nc1C1=CCCN(C)C1`, the figure is 120 to 121 °C.
As for `Clc1ccc(C(Cl)c2cc3cc(Cl)cc(Cl)c3o2)cc1` (stereo not given), the figure is 72 to 74 °C; as for `Cc1cc(C)c(NC(=O)CCCCCl)c(Cl)c1`, 80.6 to 82.9 °C.
As for `Cc1cccc(-c2cc(Cl)c3ccccc3n2)c1`, the figure is 75 to 77 °C; as for `Clc1nc(-c2ccco2)c2ncn(Cc3ccc(Cl)c(Cl)c3)c2n1`, 191 to 193 °C.
Consider `CS(=O)(=O)Nc1cc2oc(O)cc(=O)c2cc1Oc1ccccc1`, for which the melting point is greater than 250 °C.
As for `COc1ccc(CN2CCCc3cc(O)c(OC)cc3C2)cc1`, the melting point fell in the range of 105 to 107 °C.
As for `CCCCNC(=O)Nc1ncc2cc(-c3c(Cl)cccc3Cl)c(NC(=O)NCCCC)nc2n1`, the figure is 200 to 202 °C.
The compound `CCCCc1nc(C(F)(F)F)c(CO)n1Cc1ccc(-c2ccccc2C#N)cc1` displayed a melting point of 136 to 138 °C.
As for `COC(=O)[C@@H]1CSCN1S(=O)(=O)c1ccc(Cl)c(COc2cccc3c(-n4ccnc4)cc(C)nc23)c1Cl`, the figure is 60 °C; as for `COc1ccc(CNc2nc(NC[C@@H](C)O)nc3c2ncn3C(C)C)c(O)c1`, 106 to 108 °C.
As for `CCn1cc(C(=O)O)c(=O)c2cc(Cl)c(N(C)C)cc21`, the figure is 210 °C; as for `COc1ccc(CN(CCC(=O)O)c2nc(NC(=O)Nc3ccccc3OC)nc(Oc3ccc4ccccc4c3)n2)cc1`, 197 to 205 °C.
As for `CCCCCCCCCCCCCCOc1ccc(C(=O)NCCc2ccccn2)cc1`, the figure is 80 to 82 °C.
Take `N#Cc1ccc(CN2C(=O)c3ccccc3C2=O)cc1`: the melting point was in the range of 189 to 191 °C.
As for `O=C(O)Cn1c(-c2cc(Cl)ccn2)nc2cccnc21`, the figure is 218 to 220 °C; as for `Oc1ccc2c(c1)CCCC(c1ccccc1)=C2c1ccc(OCCCCCSCc2ccc(C(F)(F)F)cc2)cc1`, 147 °C.
With `O=C(Nc1cccc2cc(CBr)cnc12)c1c(Cl)cccc1Cl`, the melting point fell in the range of 223 to 224 °C.
As for `CCc1nc2c(N)nc3ccccc3c2n1CC#Cc1ccc(OC)cc1`, the figure is 179 to 181 °C.
`CCCCCCCCCCCCCC(C)S(=O)(=O)NC(=O)Nc1c(C(C)C)cccc1C(C)C` (stereo not given) registered a melting point of 65 to 75 °C.
As for `CC(=O)N(c1ccc(O)cc1)N1CCOCC1`, the figure is 183 to 184 °C; as for `CCOC(=O)c1c(N2CCN(C(=O)c3ccco3)CC2)c2cc(F)cnc2[nH]c1=O`, 207 °C.
As for `COC(=O)c1cc(-c2ccc(SC)cc2)nn(CC2CC2)c1=O`, the figure is 100 to 102 °C; as for `CNCCCN(C)c1ccc2c(C(=O)NCC34CC5CC(CC(C5)C3)C4)c(Cl)ccc2n1`, 195 to 200 °C; as for `CCC(C)(C)c1ccc(Oc2cc(N)c(O)c([N+](=O)[O-])c2)c(C(C)(C)CC)c1`, 144 to 148 °C.
Regarding `CC(=O)OCCC1CCCN(C(=O)c2ccc(NC(=O)c3ccccc3Cl)nc2)c2ccc(Cl)cc21` (stereo not given), the melting point was 151 to 153 °C.
As for `Cc1nc2c(N)nc3cc(OCCC4CCN(C(=O)C(C)C)CC4)ccc3c2n1CC(C)C`, the melting point was in the range of 205 to 207 °C.
As for `OC1CSC(Oc2cnc(-c3ccc(F)nc3)c(F)c2)C(O)C1O` (stereo not given), the figure is 184 °C; as for `COc1ccc(S(=O)(=O)N2C(=O)C(c3ccccc3OC)(N3Cc4ccccc4C[C@H]3C(=O)N(C)C)c3cc(Cl)c(Cl)cc32)c(OC)c1` (stereo not given in full), 155 °C.
`Oc1cccc(-c2nc(-c3cccnc3)no2)c1` had a melting point greater than 200 °C.
As for `CCN(CC)C(=O)c1nn(-c2cccc(OC)c2)c(=O)c2c1c1ccc(Cl)cc1n2C`, the figure is 208 °C.
